According to article PMC2652632 (Biochemistry, 2008):
Entries after “also recorded” stand apart in the source; their conditions may differ.

What was measured:
IDE-WT [1] = target: T1, IDE-WT (Homo sapiens, UniProt P14735); assay: Sensitivity of IDE-WT to NEM, GSNO and H2O2; type: biochemical; details: for inactivation of IDE by NEM / H2O2 / GSNO (in words): substrates mimicking both Aβ and bradykinin
IDE-CF [2] = target: T2, IDE-CF (Homo sapiens, UniProt P14735, C110L/C171S/C178A/C257V/C414L/C573N/C590S/C789S/C812A/C819A/C904S/C966N/C974A); assay: Sensitivity of cysteine-free IDE-CF to NEM, GSNO and H2O2; type: biochemical
IDE-CF-123 = assay: Sensitivity of IDE-CF-123 to NEM, GSNO and H2O2; type: biochemical, human; details: for inhibition by GSNO / H2O2 (in words): IDE-CF-123, substrate V or FAβB; for sensitivity to GSNO / H2O2 relative to IDE-WT (in words): IDE-CF-123 compared to IDE-WT
IDE-CF-4 = assay: Sensitivity of IDE-CF-4 to NEM, GSNO and H2O2; type: biochemical, human; details: for inhibition by GSNO / H2O2 (in words): IDE-CF-4, substrate V or FAβB
IDE-CF-A819C = assay: Sensitivity of IDE-CF-A819C to NEM, GSNO and H2O2; type: biochemical, human; details: for sensitivity to GSNO / H2O2 relative to IDE-WT (in words): IDE-CF-A819C compared to IDE-WT; for NEM sensitivity (in words): IDE-CF-A819C
rat IDE = details: cited from earlier work
IDE [3] = details: cited from earlier work
IDE [4] = assay: Degradation of insulin and short substrates by IDE; type: biochemical; details: insulin 100 nM vs kinins 4–7 mM
IDE [5] = details: insulin; literature value, reference not given; cited from earlier work
IDE-WT [6] = target: T1, IDE-WT; assay: Specific activity of IDE-WT with substrate V; type: biochemical; details: 0.5 μM fluorogenic substrate V
IDE-CF [7] = target: T2, IDE-CF; assay: Specific activity of IDE-CF with substrate V; type: biochemical; details: 0.5 μM fluorogenic substrate V
IDE [8] = details: ref 16 (b4: ref 16, 17); cited from earlier work
human IDE (IDE-CF) [9] = target: T3, human IDE (IDE-CF) (Homo sapiens, UniProt P14735, C110L/C171S/C178A/C257V/C414L/C573N/C590S/C789S/C812A/C819A/C904S/C966N/C974A); assay: Kinetic analysis of kinin degradation by IDE-CF; type: biochemical; details: for kcat for degradation by IDE: IDE-CF, competition with 0.5 μM substrate V, 50 mM potassium phosphate pH 7.3, 37 °C
human IDE (IDE-CF) [10] = target: T3, human IDE (IDE-CF); assay: Mass spectrometry analysis of kinins degradation by IDE-CF; type: biochemical; details: for major cleavage site: 50 mM potassium phosphate pH 7.3, MALDI-TOF and MS-MS
ACE = details: cited from earlier work
NEP = details: cited from earlier work
IDE M1 = assay: NEM sensitivity of IDE mutant M1; type: biochemical, human; details: IDE M1 (C904S/C966N), 0.2 and 1 mM NEM, 1 h, substrate V
IDE M2 = assay: NEM sensitivity of IDE mutant M2; type: biochemical, human; details: IDE M2 (C789S/C904S/C966N), 0.2 and 1 mM NEM, 1 h, substrate V
IDE M3 = assay: NEM sensitivity of IDE mutant M3; type: biochemical, human; details: IDE M3 (C812A/C819A/C904S/C966N), 0.2 and 1 mM NEM, 1 h, substrate V
IDE M4 = assay: NEM sensitivity of IDE mutant M4; type: biochemical, human; details: IDE M4 (C789S/C904S/C966N/C974A), 0.2 and 1 mM NEM, 1 h, substrate V
IDE M5 = assay: NEM sensitivity of IDE mutant M5; type: biochemical, human; details: IDE M5 (C789S/C819A/C904S/C966N), 0.2 and 1 mM NEM, 1 h, substrate V
IDE-WT-C819A = assay: NEM sensitivity of IDE-WT-C819A; type: biochemical, human; details: 0–1 mM NEM, substrate V, compared to IDE-CF4 and IDE-WT
IDE-CF-A812C = assay: NEM sensitivity of IDE-CF-A812C; type: biochemical, human; details: fully purified, 0.15, 0.6 and 2.5 mM NEM, 1 h, substrate V
812C mutant of IDE = details: single 812C mutant, only Ni-NTA purified; cited from earlier work

T1 sequence (P14735 whole entry): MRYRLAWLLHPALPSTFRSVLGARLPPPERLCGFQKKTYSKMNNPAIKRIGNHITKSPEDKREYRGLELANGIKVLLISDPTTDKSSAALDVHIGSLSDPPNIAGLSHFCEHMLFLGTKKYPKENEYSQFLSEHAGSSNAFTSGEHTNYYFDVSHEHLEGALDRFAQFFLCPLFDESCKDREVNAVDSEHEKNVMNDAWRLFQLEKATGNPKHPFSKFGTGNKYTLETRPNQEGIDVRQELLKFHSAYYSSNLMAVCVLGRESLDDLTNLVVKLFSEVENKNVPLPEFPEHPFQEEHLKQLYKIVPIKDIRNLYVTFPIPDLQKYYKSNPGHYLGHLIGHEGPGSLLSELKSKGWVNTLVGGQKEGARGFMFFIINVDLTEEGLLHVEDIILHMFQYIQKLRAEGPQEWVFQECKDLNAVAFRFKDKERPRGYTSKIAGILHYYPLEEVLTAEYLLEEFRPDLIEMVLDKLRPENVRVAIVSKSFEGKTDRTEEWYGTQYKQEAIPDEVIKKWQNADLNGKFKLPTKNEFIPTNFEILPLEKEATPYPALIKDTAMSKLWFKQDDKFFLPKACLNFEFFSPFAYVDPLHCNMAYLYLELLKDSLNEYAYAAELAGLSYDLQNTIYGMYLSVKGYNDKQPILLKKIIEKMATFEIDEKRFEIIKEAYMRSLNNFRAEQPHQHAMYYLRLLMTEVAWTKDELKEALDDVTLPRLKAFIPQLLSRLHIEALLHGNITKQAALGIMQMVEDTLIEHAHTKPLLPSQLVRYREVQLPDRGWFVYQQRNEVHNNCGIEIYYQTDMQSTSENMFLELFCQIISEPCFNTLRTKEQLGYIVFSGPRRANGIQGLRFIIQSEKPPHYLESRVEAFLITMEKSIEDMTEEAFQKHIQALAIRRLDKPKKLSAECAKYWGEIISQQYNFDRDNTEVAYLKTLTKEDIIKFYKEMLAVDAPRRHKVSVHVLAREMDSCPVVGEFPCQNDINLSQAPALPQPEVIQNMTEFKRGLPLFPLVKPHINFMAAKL
T2 sequence (P14735 whole entry C110L/C171S/C178A/C257V/C414L/C573N/C590S/C789S/C812A/C819A/C904S/C966N/C974A): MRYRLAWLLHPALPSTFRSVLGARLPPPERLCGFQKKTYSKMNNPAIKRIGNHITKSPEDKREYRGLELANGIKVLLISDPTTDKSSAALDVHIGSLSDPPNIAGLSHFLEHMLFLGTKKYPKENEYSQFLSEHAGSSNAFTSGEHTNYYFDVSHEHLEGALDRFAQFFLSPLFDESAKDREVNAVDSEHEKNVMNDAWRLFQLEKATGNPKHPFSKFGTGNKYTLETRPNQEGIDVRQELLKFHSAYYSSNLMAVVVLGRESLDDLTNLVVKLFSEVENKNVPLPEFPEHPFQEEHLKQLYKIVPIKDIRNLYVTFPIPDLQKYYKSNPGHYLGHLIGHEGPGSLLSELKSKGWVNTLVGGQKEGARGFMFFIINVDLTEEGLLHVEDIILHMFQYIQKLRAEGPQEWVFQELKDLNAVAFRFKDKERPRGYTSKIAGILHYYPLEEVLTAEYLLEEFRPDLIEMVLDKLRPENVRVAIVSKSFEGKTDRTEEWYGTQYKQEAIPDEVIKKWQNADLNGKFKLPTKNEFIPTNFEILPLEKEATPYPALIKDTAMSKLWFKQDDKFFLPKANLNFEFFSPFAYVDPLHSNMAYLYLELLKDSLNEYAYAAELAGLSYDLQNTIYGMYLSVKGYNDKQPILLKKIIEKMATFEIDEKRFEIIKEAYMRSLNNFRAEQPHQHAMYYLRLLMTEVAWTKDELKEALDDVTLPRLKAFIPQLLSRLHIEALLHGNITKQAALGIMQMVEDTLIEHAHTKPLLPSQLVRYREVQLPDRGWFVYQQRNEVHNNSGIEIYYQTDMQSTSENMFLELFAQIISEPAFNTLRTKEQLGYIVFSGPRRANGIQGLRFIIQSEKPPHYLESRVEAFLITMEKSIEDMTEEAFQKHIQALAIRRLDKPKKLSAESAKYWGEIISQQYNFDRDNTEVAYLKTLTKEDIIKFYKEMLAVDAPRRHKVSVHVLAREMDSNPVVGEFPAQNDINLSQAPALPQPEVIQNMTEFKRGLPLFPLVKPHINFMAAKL
T3 sequence (P14735 whole entry C110L/C171S/C178A/C257V/C414L/C573N/C590S/C789S/C812A/C819A/C904S/C966N/C974A): as above

Compound: OO [H2O2, hydrogen peroxide]
- inactivation of IDE by NEM / H2O2 / GSNO (in words) (IDE-WT [1]): potently inactivate the catalytic activity of IDE
- inhibition by GSNO / H2O2 / NEM (in words) (IDE-CF [2]; cysteine-free IDE-CF, substrate V or FAβB, 1 mM reagent): insensitive to the inhibition
- inhibition by GSNO / H2O2 (in words) (IDE-CF-123): inactivated
- sensitivity to GSNO / H2O2 relative to IDE-WT (in words) (IDE-CF-123): more sensitive
- inhibition by GSNO / H2O2 (in words) (IDE-CF-4): relatively resistant
- sensitivity to GSNO / H2O2 relative to IDE-WT (in words) (IDE-CF-A819C): more sensitive
- inactivation of rat IDE (in words) (rat IDE): inactivate rat IDE
- inhibition by sulfhydryl-directed reactions (in words) (IDE [3]): sensitive to inhibition

Compound: N[C@@H](CCC(=O)N[C@@H](CSN=O)C(=O)NCC(=O)O)C(=O)O [GSNO, S-nitroso-glutathione]
- inactivation of IDE by NEM / H2O2 / GSNO (in words) (IDE-WT [1]): potently inactivate the catalytic activity of IDE
- inhibition by GSNO / H2O2 (in words) (IDE-CF-123): inactivated
- sensitivity to GSNO / H2O2 relative to IDE-WT (in words) (IDE-CF-123): more sensitive
- inhibition by GSNO / H2O2 (in words) (IDE-CF-4): relatively resistant
- sensitivity to GSNO / H2O2 relative to IDE-WT (in words) (IDE-CF-A819C): more sensitive

Compound: insulin: large peptide substrate of IDE
- Km of insulin relative to kinins (IDE [4]): about five orders of magnitude lower
- Km (IDE [5]): 0.1 µM

Compound: 7-methoxycoumarin-4-yl-acetyl-NPPGFSAFK-2,4-dinitrophenyl [substrate V]
- specific activity (IDE-WT [6]): 3.0 ± 0.4 min⁻¹
- specific activity (IDE-CF [7]): 4.5 ± 0.1 min⁻¹

Compound: Nc1ncnc2c1ncn2[C@@H]1O[C@H](COP(=O)(O)OP(=O)(O)OP(=O)(O)O)[C@@H](O)[C@H]1O [ATP]
- activation of IDE (in words) (IDE [8]): can activate IDE

Compound: bradykinin: vasoactive nonapeptide hormone of the family of kinins, purchased from AnaSpec (RPPGFSPFR)
- kcat for degradation by IDE (human IDE (IDE-CF) [9]): around 2,000 sec^−1
- affinity of IDE for kinins (in words) (human IDE (IDE-CF) [9]; inferred from Km): low affinity
- major cleavage site (human IDE (IDE-CF) [10]; 30 min incubation): at the Pro/Phe site; also recorded: between residues Pro^7 and Phe^8
- minor cleavage site (human IDE (IDE-CF) [10]; 30 min incubation, MALDI-TOF peak m/z 653.32, not confirmed by MS-MS): between residues Gly^4 and Phe^5
- hydrolysis by IDE (in words) (human IDE (IDE-CF) [10]; purified recombinant human IDE, 30-minute incubation, MALDI-TOF): hydrolyzed after 30-minute incubation
- activation of IDE (in words) (IDE [8]): activator of IDE
- cleavage of C-terminal di-peptide (ACE): Same cleavage of the C-terminal di-peptide
- cleavage of C-terminal di-peptide (NEP): Same cleavage of the C-terminal di-peptide

Compound: CCN1C(=O)C=CC1=O [NEM, N-ethyl-maleimide]
- loss of activity (IDE-WT [1]; IDE-WT, 1 mM NEM, 1 h, 25 °C, pH 7.2, 0.5 μM substrate V, control = buffer only): greater than 95%
- NEM sensitivity (in words) (IDE-WT [1]; IDE-WT, 0.2–1 mM NEM, 1 h, substrate V): highly sensitive to inhibition by NEM
- inactivation of IDE by NEM / H2O2 / GSNO (in words) (IDE-WT [1]): potently inactivate the catalytic activity of IDE
- NEM sensitivity (in words) (IDE-CF [2]; IDE-CF, 0.2–1 mM NEM, 1 h, substrate V): relatively resistant to the inactivation by NEM
- NEM sensitivity relative to IDE-WT (in words) (IDE-CF-123; IDE-CF-123, 0.2 and 1 mM NEM, 1 h, substrate V): more sensitive
- NEM sensitivity (in words) (IDE-CF-123; IDE-CF-123, 0.2 and 1 mM NEM, 1 h, substrate V, partially purified): highly sensitive to NEM
- NEM sensitivity (in words) (IDE-CF-4; IDE-CF-4, 0.2 and 1 mM NEM, 1 h, substrate V, partially purified): significantly reduced sensitivity
- NEM sensitivity (in words) (IDE M1): susceptibility to NEM
- NEM sensitivity (in words) (IDE M2): susceptibility to NEM
- NEM sensitivity (in words) (IDE M3): partial resistance
- NEM sensitivity (in words) (IDE M4): susceptibility to NEM
- NEM sensitivity (in words) (IDE M5): partial resistance
- NEM sensitivity (in words) (IDE-WT-C819A): less sensitive to NEM inactivation
- NEM sensitivity (in words) (IDE-CF-A819C; fully purified, 0.15, 0.6 and 2.5 mM NEM, 1 h, substrate V): only IDE-CF-A819C is highly sensitive to the NEM inactivation
- NEM sensitivity (in words) (IDE-CF-A819C; partially purified (preliminary)): sensitivity to NEM
- NEM sensitivity (in words) (IDE-CF-A812C): does not induce a similar inhibition effect as Cys 819
- susceptibility to alkylation (in words) (812C mutant of IDE): susceptible to alkylation
- mode of inhibition (IDE [3]; S-alkylation of IDE by NEM): non-competitive
- inhibition by sulfhydryl-directed reactions (in words) (IDE [3]): sensitive to inhibition

Compound: kallidin
- kcat for degradation by IDE (human IDE (IDE-CF) [9]): around 2,000 sec^−1
- major cleavage site (human IDE (IDE-CF) [10]; 30 min incubation): at the Pro/Phe site; also recorded: between Pro^8 and Phe^9
